Experimental data from patent US4902791A, “Nitrosourea derivatives, process for their preparation and medicaments containing them” (Sanofi S.A., priority 1983, dated 1990).

Tests used:
melanoma B16 [1] = assay: activity toward melanoma B16 implanted subcutaneously, I.V. route; format: in vivo, mouse; conditions: 20 mg/kg/inj. days 3, 7, 11
Description: The activity of the substances of the invention was also tested by administering the said substances of the invention by the I.V. route. 0.5 ml of an homogenate of the tumor (1 g/10 ml) is administered to B6C3F1 female mice by the subcutaneous (S.C. route) on day 0. The products of the invention and the substances used for comparison are administered on days 3, 7 and 11 in isotonic solution.
In Table IIA below the results are presented relating to the activity of the substance CI. 1675 administered by the I.V. route on the growth of the melanoma B16 implanted subcutaneously, in comparison with carmustine BCNU marketed under the name of BiCNU®.
In Table IIA below and in the subsequent tables, T represents the mean weight (or median) of the tumors in the treated mice, C represents the mean weight (or median) of the tumors in the control, untreated mice and the ratio T/C% corresponds to T/C×100.

colon carcinoma C38 [2] = assay: colon carcinoma C38, comparison of I.V. and I.P. routes, treatment days 8, 12, 16; format: in vivo, mouse; set-up: key to Median wt. of the tumor D20 / Median wt. of the tumor D27: median tumor weight in mg; conditions: I.P. Route, 20 mg/kg/inj.
Description: With a view to verifying the antitumor activity of the product of the invention CI.1671 when it is administered by the I.V. route, another experiment was performed in which this product was administered by the I.P. route and the I.V. route for the purposes of comparison.
This experiment is carried out under particularly difficult conditions, the first day of the treatment corresponding to the eighth day after the implantation of the carcinoma C38, whereas normally the treatment starts on the day of implantation of the tumor (D0) or 1 day after (D1) the implantation of the tumor.
The median weight of the tumors on the first day of treatment (day 8) is about 12 mg (tumors varying from 8 to 40 mg). The animals are treated on days 8, 12 and 16 depending on the different routes indicated. […]

leucemia L 1210 IGR = assay: "in vivo" activity on leucemia L1210 IGR, 20 mg/kg i.p. days 1, 5, 9; set-up: species or system mouse; conditions: for percentage of cured mice: surviving more than 60 days
Description: Female DBA2 mice were used, about 8 weeks old and weighing about 20 g from the IFFA-CREDO center (les Oncins, 69210 Arbresles)
At day "0", each mouse received intraperitoneally an inoculum of […] in a volume of 0.2 ml.
After tumoral graft, the mice were distributed at random into 21 cages of 5 animals, themselves then distributed, by drawing lots, into 6 experimental series. Within these 6 experimental series, there were constituted a control series of 6 cages and 5 experimental series of 3 cages each, and of which the mice were intended to be treated by the compounds of the invention.
(§1) The protocol was identical for the 3 tumors and the 5 compounds of the invention to be tested.
(§2) As regards the experimental series to be treated, each mouse received, at days 1, 5 and 9, intraperitoneally, a dose of 20 mg/kg of the compound to be tested, in the volume of 0.2 ml of neutralized and sterilized olive oil.
(§3) As regards the control series, each mouse received, intraperitoneally, 0.2 ml of neutralized and sterilized olive oil.
(§4) The results are expressed by the relative increase in survival (T/C×100) calculated from the average survival of the treated animals (T) and that of the control animals (C)
(§5) The mice surviving more than 60 days were considered as cured.
(§6) The figures between parentheses indicate the percentage of cured mice.

Tumor LEWIS 3LL = assay: "in vivo" activity on Lewis tumor, 20 mg/kg i.p. days 1, 5, 9; set-up: species or system mouse; conditions: for percentage of cured mice: surviving more than 60 days
Description: Procedure was under the conditions which have just been described previously with regard to melanoma B16, by injecting the tumor cells, in the proportion of 2×10^6 per mouse, in the volume of 0.2 ml.
as §1, §2, §3, §4, §5, §6

melanoma B16 [3] = assay: "in vivo" activity on melanoma B16, 20 mg/kg i.p. days 1, 5, 9; set-up: species or system mouse; conditions: for percentage of cured mice: surviving more than 60 days
Description: Female C57 B 1/6 mice were used, about 8 weeks old and weighing about 20 g, from the IFFA-CREDO center.
At day "0", each mouse received intraperitoneally an inoculum of 2×10^6 tumor cells in a volume of 0.5 ml.
After tumoral graft, distribution at random was carried out as indicated above, to obtain a control series of 8 cages and 5 experimental series of 4 cages each, and of which the mice were intended to be treated by the compounds of the invention.
as §1, §2, §3, §4, §5, §6

L 1210 USA Tumor = assay: "in vivo" activity on L1210 U.S.A. tumor, 5 mg/kg i.p. days 1, 5, 9; set-up: species or system mouse
Description: The tumor L1210 U.S.A. is more resistant than tumor L1210 IGR.
(§7) The experiments were identical to those described in preceding paragraph 4 but lower doses were used.
There were inoculated into the mice, 10^5 tumor cells of L1210 U.S.A. intraperitoneally in a volume of 0.2 ml.
At days 1, 5 and 9, the compounds of the invention under test were injected intraperitoneally, at a lower dose than that used in the experiment described at 4, that is to say in the proportion of 5 mg/kg.

L 1210 IGR TUMOR = assay: "in vivo" activity on L1210 IGR tumor, 5 mg/kg i.p. days 1, 5, 9; set-up: species or system mouse
Description: as §7
The same protocol was carried out with the tumor L1210 IGR, by inoculating 10^5 tumor cells of L1210 IGR intraperitoneally in the volume of 0.2 ml then, at days 1, 5 and 9, there were injected intraperitoneally 5 mg/kg of each of the compounds to be tested.

L 1210 cells = assay: cytotoxic index after 1 h contact, potential "in vivo" activity (TEST N° 2); format: cell-based, mouse
Description: The test used is that of W. J. Durkin et al. Cancer Research 1979, 39, 402-407, modified.
All the nitrosoureas were dissolved in 70% ethanol in the proportion of 10 mg/ml.
2--Determination of the potential "in vivo" activity
L 1210 cells, under conditions similar to the preceding protocol, were contacted for 1 hour with a dose of the various products tested corresponding to a cytotoxic index equal to 20%. After this time, the cells were placed in culture medium not containing nitrosoureas and incubated at 37° C. After 48 hours, the cytotoxic index was determined.

[4] = toxicological results, single I.P. dose, DL0 and DL50; format: in vivo, mouse; conditions: mice
Text: DL0, DL50, single I.P. dose administered to the aforementioned strains of mice.

L1210 U.S.A. = assay: antitumor activity on leukemia L1210 U.S.A., products of examples 33-39, I.P.; format: in vivo, mouse
Description: The experiments were always carried out on female mice which were specific pathogen-free (S. P. F.),
either of the line DBA/2JIco
or of the line B6 D2 F1/JIco (first generation hybrids between the lines C57BL/6 and DBA/2).
On the day of the graft (by convention day 0=D0) an inoculum of 1×10^5 tumor cells in a volume of 0.2 ml is administered to each mouse by the intraperitoneal route (I.P.).
This inoculum is prepared by diluting ascites fluid taken from the peritoneum of a donor female mouse in NCTC 109 medium (Eurobio Laboratories, Paris, France), counting of the cells in a MALASSEZ cell under a microscope and adjustment of the concentration to 5×10^5cells […] by means of the same medium.
The tumor line is an American strain of the line L1210.
After the tumor graft, the mice are distributed at random in cages of 5 animals. Subsequently, these cages containing 5 mice are themselves distributed at random into a control group (control) and groups treated with the I.C. products.
The doses of the products of the invention used in the different experiments are expressed in milligrams per kilogram of body weight.
The products to be injected were dissolved in isotonic sodium chloride solution.
2 protocols for treatment were used in the different experiments:
either a single injection on D1, by the intraperitoneal (I.P.) or intravenous (I.V.) route,
or 3 I.P. injections on D1, D5, D9.
In each experiment the animals of the control group received 1 or more injections, depending on the experimental protocol used, by the same route (I.P. or I.V.) of the same volume (0.2 ml/20 g) of the vehicle without the active principle (isotonic sodium chloride solution).
the number and percentage of the total of the mice surviving to D60,
the T/C×100 for the treated groups.
T representing the mean survival time of the mice in the treated group,
C representing the mean survival time of the mice in the control group (controls).

colon carcinoma C38 [5] = assay: activity on colon carcinoma C38 implanted subcutaneously, I.P. days 2 and 9; format: in vivo, mouse; conditions: I.P.
Description: A tumor fragment is implanted on day 0 in female B6 D2 F1 mice (19-22 g). The treatment with all of the products is administered by the I.P. route on days 2 and 9 (which is a delayed treatment). The weight of the tumors is calculated on day 20.

[6] = DBA2, I.P. D1, D5, D9, 3×10 mg/kg
[7] = DBA2, I.P. D1, D5, D9, 3×2.5 mg/kg

## O=NN(CCCl)C(=O)NCCCl [BCNU, (1,3-bis-2-chloroethyl)-1-nitrosourea, reference compound]
Melanoma B16 [1]
  Median weight of the tumor on day 3: 40 mg
  Median weight of the tumor on day 30: 2 581 mg
  T/C on day 30 (tumor weight): 33,0%
Colon carcinoma C38 [2]
  Median wt. of the tumor D20: 196
  Median wt. of the tumor D27: 274
  Mice without tumor/total D20: 0/8
  Mice without tumor/total D27: 0/6
  T/C % D20: 34%
  T/C % D27: 21%

## CO[C@@H]1C[C@@H](NC(=O)N(CCCl)N=O)[C@H](O)[C@@H](CO)O1 [IC 1184, Methyl 3-[3-(2-chloroethyl) 3-nitrosoureido] 2,3-didesoxy α-D-arabinohexopyranoside]
Leucemia L 1210 IGR
  relative increase in survival (T/C×100): 556
  percentage of cured mice: 47%
Tumor LEWIS 3LL
  relative increase in survival (T/C×100): .infin. (The sign 00 indicates that 50% at least of the mice were cured)
  percentage of cured mice: 90%
Melanoma B16 [3]
  relative increase in survival (T/C×100): 235
  percentage of cured mice: 15%
L 1210 USA Tumor
  Average survival ±2 σm: 18 ± 1,19
  Median survival: 17,8
  T/C × 100 (average survival): 209
  T/C × 100 (median survival): 205
L 1210 IGR TUMOR
  Median survival: 24
  T/C × 100 (average survival): 378
  T/C × 100 (median survival): 265

## CO[C@@H]1C[C@@H](NC(=O)N(CCCl)N=O)[C@H](O)[C@@H](CNC(=O)N(CCCl)N=O)O1 [IC 1374, Methyl bis 3,6-[3-(2-chloroethyl) 3-nitrosoureido] 2,3,6-tridesoxy α-D-arabinohexopyranoside]
L 1210 cells; 1 hour contact at dose giving 20% index, read after 48 hours
  CYTOTOXIC INDEX: 71%
L 1210 cells; active if cytotoxic index ≥40%
  POTENTIAL "IN VIVO" ACTION: + (if the cytotoxic index was equal to or greater than 40%, the product concerned would be active "in vivo" in the mouse)
Leucemia L 1210 IGR
  relative increase in survival (T/C×100): .infin. (The sign 00 indicates that 50% at least of the mice were cured)
  percentage of cured mice: 67%
Tumor LEWIS 3LL
  relative increase in survival (T/C×100): .infin. (The sign 00 indicates that 50% at least of the mice were cured)
  percentage of cured mice: 75%
Melanoma B16 [3]
  relative increase in survival (T/C×100): 246
  percentage of cured mice: 10%
L 1210 USA Tumor
  Average survival ±2 σm: 12,9 ± 0,55
  Median survival: 13,1
  T/C × 100 (average survival): 150
  T/C × 100 (median survival): 151
L 1210 IGR TUMOR
  Average survival ±2 σm: 17,1 ± 2,10
  Median survival: 16,75
  T/C × 100 (average survival): 189
  T/C × 100 (median survival): 185

## CO[C@H]1O[C@H](C)C[C@H](NC(=O)N(CCCl)N=O)[C@H]1O [IC. 85-1590, methyl 3-[3-(2-chloroethyl) 3-nitroso-ureido] 3,4,6-trideoxyα-D-xylo-hexopyranoside]
[4]
  DL0: ≥ 25 mg/kg

## CO[C@H]1C[C@@H](NC(=O)N(CCCl)N=O)[C@H](O)[C@@H](C)O1 [IC. 85-1625, methyl 3-[3-(2-chloroethyl) 3-nitrosoureido] 2,3,6-trideoxyβ-L-arabino-hexopyranoside]
L1210 U.S.A.; [6]
  Number of survivors at D60: 0/10
  T/C: 190
[4]
  DL0: ≥ 40 mg/kg

## CO[C@@H]1O[C@@H](C)C[C@@H](NC(=O)N(CCCl)N=O)[C@@H]1O [IC. 85-1626, methyl 3-[3-(2-chloroethyl) 3-nitrosoureido] 3,4,6-trideoxyα-L-xylo-hexopyranoside]
L1210 U.S.A.; DBA2, I.P. D1, 1×20 mg/kg
  Number of survivors on D60: 3/10
L1210 U.S.A.; [7]
  Number of survivors on D60: 0/10
  T/C: 150
L1210 U.S.A.; [6]
  Number of survivors at D60: 3/10
  T/C: 275
[4]
  DL0: ≥ 20 mg/kg
[4]; mouse, in vivo, ip
  LD50: ~40 mg/kg

## CO[C@H]1O[C@@H](C)C[C@@H](NC(=O)N(CCCl)N=O)[C@@H]1O [IC. 85-1627, methyl 3-[3-(2-chloroethyl) 3-nitrosoureido] 3,4,6-trideoxyβ-L-xylo-hexopyranoside]
L1210 U.S.A.; DBA2, I.P. D1, 1×20 mg/kg
  Number of survivors on D60: 3/10
L1210 U.S.A.; [7]
  Number of survivors on D60: 0/10
  T/C: 141
L1210 U.S.A.; [6]
  Number of survivors at D60: 6/10
  T/C: > 600
[4]
  DL0: ≥ 40 mg/kg

## CN(C)S(=O)(=O)CCNC(=O)N(CCCl)N=O [TCNU, reference compound]
Colon carcinoma C38 [5]; 7.5 mg/kg/inj. days 2 and 9
  Number of mice without tumor/total: 2/10
  T/C: 65%
  Weight of the tumor on day 20: 266 mg
Colon carcinoma C38 [5]; 15 mg/kg/inj. days 2 and 9
  Number of mice without tumor/total: 7/10
  T/C: 0%
  Weight of the tumor on day 20: 0 mg
Colon carcinoma C38 [5]; 30 mg/kg/inj. days 2 and 9
  dead mice (remarks): 10
